From patent publication US20220256890A1, “ANIMAL FEED SUPPLEMENT AND ANIMAL FEED COMPOSITION” (MOOTRAL INNOVATIONS LIMITED, priority 2019, published 2022) come the findings set out here.

For this experiment, the system named is rumen inoculum. The experiment is described as follows: in vitro incubation of test materials with rumen inoculum, methane measured by micro-gas chromatograph. Type of experiment: cell-based, dairy cows. Conditions: Example 2, no garlic, 24 hour incubation. On the procedure: Rumen inoculum was obtained before the morning feeding from 3 rumen fistulated dairy cows on a diet composed of 50% maize silage and 50% wilted grass silage (on dry matter basis) supplemented with some straw and urea. Additionally, soybean meal and balanced compound feed were administered to fulfil the animals' requirements for milk production. Test materials were incubated in 125-mL flasks containing 25 mL of CO2-saturated bicarbonate/phosphate buffer (containing 3.58 g Na2HPO4.12H2O, 1.55 g KH2PO4, 0.124 g MgCl2.6H2O, 8.74 g NaHCO3 and 1.71 g NH4HCO3 per liter of distilled water) and rumen inoculum, in triplicate per test material (3 biological replicates). A mixture of maize silage (crude protein 65.6 g kg^−1, crude fat 27.9 g kg^−1, crude fibre 145 g kg^−1 and starch 410 g kg DM^−1), grass silage (crude protein 153 g kg^−1, crude fat 28.8 g kg^−1, crude fibre 277 g kg^−1 and sugar 78.5 g kg^−1) and dairy concentrate (crude protein 183 g kg^−1, crude fibre 29 g kg^−1 an sugar 89 g kg^−1) was used as the substrate (30/30/40, DM weight basis, 250 mg flask^−1). The test materials (garlic powder, eugenol, geranyl acetate and coriander oil) were added shortly before the incubation directly into the fluid. All flasks were incubated in a shaking incubator at 39° C. (Edmund Buhler Gmbh, Hechingen, Germany). At the end of the 24 hour incubation, flasks were removed from the incubator and placed in ice water to stop the fermentation. pH, gas pressure and gas composition were measured, and samples were collected for VFA analysis. Different amounts of garlic powder were used providing allicin doses of 0.1 mg, 0.2 mg, 0.4 mg, and 0.8 mg per flask (i.e. 4 mg/l, 8 mg/l, 16 mg/l, and 32 mg/l). A fixed concentration of 500 mg/l (i.e. 12.5 mg/flask) for the other test materials was used. Water was used as a negative control. The amount of methane gas was measured using a micro-gas chromatograph equipped with two gas chromatographic modules and a thermal conductivity detector (3000 micro-GC, Agilent, USA). Ethane (C2H6; 1 mL/flask) was used as internal standard and argon as a carrier gas for both columns. The data obtained with the test materials was normalized to a non-treated control group, i.e. samples receiving the substrate only (negative control). I.e. 100% refers to the value of the negative control. Values below 100% indicate reduction of methane as a result of the additive. Values above 100% indicate an increase in methane production. The synergism between garlic and a component of essential oil was also studied. Synergy was calculated by adding the percentage reduction of methane by garlic alone and eugenol or geranyl acetate alone and then subtracting the percentage reduction of the combination and the component of essential oil. The resulting values were inversed. […] An experiment was conducted to test the dose-dependent effects of the essential oils and the components of the essential oils. The same method and test materials of Example 1 was used in this experiment. Different amounts of garlic powder were used providing allicin doses of 0.1 mg, 0.2 mg, 0.4 mg, and 0.8 mg per flask (i.e. 4 mg/l, 8 mg/l, 16 mg/l, and 32 mg/l). The doses of eugenol, geranyl acetate, coriander oil and bornyl acetate were varied in this experiment whereby 0.25 mg/ml, 0.5 mg/ml, 0.75 mg/ml of test materials was used. Water was used as a negative control. The amount of methane produced for each reaction was measured using the same method as described in Example 1.

Setting [1] is: essential oil or component alone 0.25 mg/mL.
The mark [2] stands for this setting: essential oil or component alone 0.5 mg/mL.
Setting [3] is: essential oil or component alone 0.75 mg/mL.

Turning to `CC(=O)OC1CC2CCC1(C)C2(C)C` (stereo not drawn) [Bornyl acetate], the production of methane runs as follows: under setting [1], 422 μmol/reaction; under setting [2], 353 μmol/reaction; under setting [3], 267 μmol/reaction.
On to `C=CCc1ccc(O)c(OC)c1` [Eugenol], for which the production of methane is 388 μmol/reaction under setting [1], 310 μmol/reaction under setting [2] and 234 μmol/reaction under setting [3].
In the same order, the values of `CC(=O)OC/C=C(\C)CCC=C(C)C` [Geranyl acetate] are 436 μmol/reaction, 327 μmol/reaction and 203 μmol/reaction.
